Experimental data from patent publication EP1972624A1, “Benzoxazinones and their use as ultraviolet light absorbers” (Clariant International Ltd., priority 2007, dated 2008).
≈ marks a conversion by molar mass, not a printed value.

Assays:
Type in all cases: physicochemical
[1] = Decomposition point (DP) by DSC; details: sealed aluminum pan, 40 to 400°C, 10°C/min, nitrogen
Method: The decomposition point (DP) is determined using a TA Instruments DSC Q100 apparatus, the compound being incorporated into a sealed aluminum pan. Analysis conditions are as following: Temperature range from 40 to 400°C, heating rate 10°C/min, nitrogen flow of 50 ml/min. Values are determined by single measurement.

[2] = Solubility in organic solvents; details: for Solubility in Dowanol PMA: Dowanol PMA (CH3COO2CH(CH3)CH2OCH3)
[3] = UV/vis: λmax and ε in CH2Cl2 by UV spectrophotometer; details: dissolved in CH2Cl2
Method: λmax (lambda max) and ε (epsilon) values of the compounds of formula (I) are determined dissolved in CH2Cl2 using an UV spectrophotometer. These values are obtained by balancing the measurements performed on compound solutions at three different concentrations.

SMILES	DP (decomposition point) [1]	Solubility in xylene [2]	εmax [3]	λmax [3]	Solubility in Dowanol PMA [2]
CCCCCCCCOc1c(-c2nc3ccccc3c(=O)o2)sc2ccccc12 [(Ia)]	370 °C	> 100 mg/mL	26000 L/mol/cm	341 nm	> 50 mg/mL
CC(=O)Oc1c(-c2nc3ccccc3c(=O)o2)sc2ccccc12 [(If)]	351 °C	< 10 mg/mL	28700 L/mol/cm	337 nm	–
CCCC(=O)Oc1c(-c2nc3ccccc3c(=O)o2)sc2ccccc12 [(Ig)]	352 °C	< 10 mg/mL	26400 L/mol/cm	337 nm	–
CCCCC(CC)C(=O)Oc1c(-c2nc3ccccc3c(=O)o2)sc2ccccc12 (stereo not drawn) [(Ih)]	375 °C	10 mg/mL (≈ 23.7 mM)	24100 L/mol/cm	337 nm	–
O=C(Oc1c(-c2nc3ccccc3c(=O)o2)sc2ccccc12)c1ccccc1 [(Ii)]	≥ 400 °C	< 10 mg/mL	25500 L/mol/cm	338 nm	–

The next lines start with results.

DP (decomposition point) [1]	Solubility in xylene [2]	εmax [3]	λmax [3]	SMILES	Solubility in Dowanol PMA [2]
385 °C	> 100 mg/mL	26200 L/mol/cm	341 nm	CCCCC(CC)COc1c(-c2nc3ccccc3c(=O)o2)sc2ccccc12 (stereo not drawn) [(Ib)]	> 50 mg/mL
381 °C	120 mg/mL (≈ 259 mM)	21800 L/mol/cm	342 nm	CCCCCCCCCCCCOc1c(-c2nc3ccccc3c(=O)o2)sc2ccccc12 [(Ic)]	–
384 °C	100 mg/mL (≈ 192 mM)	31900 L/mol/cm	341 nm	CCCCCCCCCCCCCCCCOc1c(-c2nc3ccccc3c(=O)o2)sc2ccccc12 [(Id)]	–
≥ 400 °C	40 mg/mL (≈ 89.4 mM)	25900 L/mol/cm	343 nm	CCCCCCCCCCCc1c(-c2nc3ccccc3c(=O)o2)sc2ccc(C)cc12 [(Ie)]	–
≥ 390 °C	< 5 mg/mL	29000 L/mol/cm	338 nm	O=c1oc(-c2sc3ccccc3c2Cl)nc2ccccc12 [(Ij)]	–
